The record followed here is ChEMBL document CHEMBL3879914, “Inhibitors of central nervous system vasoactive inhibitory peptide receptor 2” (2014).

The target of assay [1] is T1, Vasoactive intestinal polypeptide receptor 2 (Homo sapiens) (UniProt P41587).
T1 sequence (whole entry): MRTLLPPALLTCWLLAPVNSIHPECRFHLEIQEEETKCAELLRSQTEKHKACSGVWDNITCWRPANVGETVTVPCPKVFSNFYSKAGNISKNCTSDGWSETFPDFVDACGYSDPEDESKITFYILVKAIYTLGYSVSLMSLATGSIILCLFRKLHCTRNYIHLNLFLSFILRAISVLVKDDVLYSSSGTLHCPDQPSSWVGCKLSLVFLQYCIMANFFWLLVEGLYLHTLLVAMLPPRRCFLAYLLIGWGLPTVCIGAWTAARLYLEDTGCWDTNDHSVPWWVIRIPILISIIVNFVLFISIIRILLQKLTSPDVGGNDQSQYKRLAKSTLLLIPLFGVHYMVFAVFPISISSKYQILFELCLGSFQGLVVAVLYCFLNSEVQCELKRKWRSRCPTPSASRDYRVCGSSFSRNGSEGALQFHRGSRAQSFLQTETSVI
Briefly: Antagonist activity at recombinant human N-terminal signal peptide/FLAG epitope-tagged Rluc8-fused VIPR2 expressed in HEK293 cells assessed as inhibition of VIP-induced human mVenus-beta-arrestin2 binding at 0.5 uM preincubated for 5 mins with luciferin, coelenterazine H followed by VIP addition measured after 5 mins by BRET assay relative to control. The assay is classed as cell-based.

The target of assay [2] is T2, Vasoactive intestinal polypeptide receptor 2 (Homo sapiens, UniProt P41587).
T2 sequence (P41587 whole entry): T1 sequence (whole entry)
Kind of assay: Antagonist activity at recombinant human N-terminal signal peptide/FLAG epitope-tagged Rluc8-fused VIPR2 expressed in HEK293 cells assessed as inhibition of VIP-induced human mVenus-beta-arrestin2 binding preincubated for 5 mins with luciferin, coelenterazine H followed by VIP addition measured after 5 mins by BRET assay. Format: cell-based. (Bioluminescence resonance energy transfer reports proximity on the nanometre scale.)

For assay [3], the target named is T1, Vasoactive intestinal polypeptide receptor 2 (Homo sapiens). Briefly: Antagonist activity at recombinant human N-terminal signal peptide/FLAG epitope-tagged VIPR2 expressed in HEK293 cells co-expressing CAMYEL assessed as inhibition of VIP-induced cAMP accumulation at 0.5 uM preincubated for 5 mins with luciferin, coelenterazine H followed by VIP addition measured after 5 mins by BRET assay relative to control. The assay is classed as functional, cell-based.

Assay [4] shares this target. Kind of assay: Antagonist activity at recombinant human N-terminal signal peptide/FLAG epitope-tagged VIPR2 expressed in HEK293 cells co-expressing CAMYEL assessed as inhibition of VIP-induced cAMP accumulation at 5 uM preincubated for 5 mins with luciferin, coelenterazine H followed by VIP addition measured after 5 mins by BRET assay relative to control. Format: functional, cell-based. (In general: cAMP levels reflect the balance of adenylyl cyclase and phosphodiesterase activity.)

For assay [5] the target is unchanged. Kind of assay: Antagonist activity at recombinant human N-terminal signal peptide/FLAG epitope-tagged VIPR2 expressed in HEK293 cells co-expressing CAMYEL assessed as inhibition of VIP-induced cAMP accumulation at 1 uM preincubated for 5 mins with luciferin, coelenterazine H followed by VIP addition measured after 5 mins by BRET assay relative to control. Format: functional, cell-based.

Assay [6] shares this target. Kind of assay: Antagonist activity at recombinant human N-terminal signal peptide/FLAG epitope-tagged Rluc8-fused VIPR2 expressed in HEK293 cells assessed as inhibition of VIP-induced human mVenus-beta-arrestin2 binding at 5 uM preincubated for 5 mins with luciferin, coelenterazine H followed by VIP addition measured after 5 mins by BRET assay relative to control. The assay is classed as cell-based.

Assay [7] has the same target. Kind of assay: Antagonist activity at recombinant human N-terminal signal peptide/FLAG epitope-tagged Rluc8-fused VIPR2 expressed in HEK293 cells assessed as inhibition of VIP-induced human mVenus-beta-arrestin2 binding at 1 uM preincubated for 5 mins with luciferin, coelenterazine H followed by VIP addition measured after 5 mins by BRET assay relative to control. Format: cell-based.

As a reminder, the inhibition is the drop in the measured response relative to a control, in per cent. One may read the IC50 as the concentration that inhibits the measured activity by half. For `CO[C@@H]1Cc2ccccc2[C@@H]1NC(=O)[C@H](Cc1ccccc1)C[C@H](O)CNS(=O)(=O)c1ccc(C(C)=O)cc1`, the inhibition in assay [1] stood at 76.2%. For the same molecule, the IC50 in assay [2] came out at 5 µM.
In the case of `CO[C@H]1Cc2ccccc2[C@@H]1NC(=O)[C@H](Cc1ccccc1)C[C@H](O)CNS(=O)(=O)c1ccc2c(c1)OCCO2`, the inhibition in assay [1] came out at 28.1%. Moreover, the 50% inhibitory concentration (IC50) in assay [2] amounted to 6 µM.
As for `CCc1ccc(S(=O)(=O)NC[C@@H](O)C[C@@H](Cc2ccccc2)C(=O)N[C@H]2c3ccccc3C[C@H]2O)cc1`, the 50% inhibitory concentration (IC50) in assay [2] lay in the range of 1.13 to 45.8 µM.
Regarding `O=C(N[C@H]1c2ccccc2C[C@H]1O)[C@H](Cc1ccccc1)C[C@H](O)CNS(=O)(=O)c1ccc2c(c1)OCCO2`, the IC50 in assay [2] was in the range of 0.206 to 33.7 µM.
Regarding `CO[C@@H]1Cc2ccccc2[C@@H]1NC(=O)[C@H](Cc1ccccc1)C[C@H](O)CNS(=O)(=O)c1ccc(Cl)cc1`, the inhibition in assay [1] worked out at 13.3%. Further, the IC50 in assay [2] was 4 µM.
Consider `O=C(N[C@H]1c2ccccc2C[C@H]1O)[C@H](Cc1ccccc1)C[C@H](O)CNS(=O)(=O)c1ccc(Cl)cc1`, for which the IC50 in assay [2] was in the range of 0.28 to 2.02 µM.
For the molecule `CC(=O)Nc1ccc(S(=O)(=O)NC[C@H](C[C@@H](Cc2ccccc2)C(=O)N[C@H]2c3ccccc3C[C@H]2O)OC(C)=O)cc1`, the inhibition is -4.3% in assay [3]; 3% in assay [4]; 32.3% in assay [5]; 10.5% in assay [6]; -1.8% in assay [7]; -9.8 to 6.75% in assay [1].
On to `O=C(NCc1ccc(F)cc1F)[C@@H](Cc1ccccc1)C[C@H](O)CNS(=O)(=O)c1ccc([N+](=O)[O-])cc1`, for which the inhibition in assay [3] was -5.4%; in assay [4], 13.8 to 18.2%; in assay [5], 4.7 to 13.8%; in assay [6], 24%; in assay [7], 20%; in assay [1], 21.1 to 23.9%.
With `O=C(NC1CCCc2ccccc21)[C@@H](Cc1ccccc1)C[C@H](O)CNS(=O)(=O)c1ccc([N+](=O)[O-])cc1` (some centres not stated), the inhibition in assay [3] is 5.1%; in assay [4], 17.4 to 69.5%; in assay [5], 6.6 to 69.5%; in assay [6], 0.6%; in assay [7], 5.9%; in assay [1], 4.8 to 9%.
For the molecule `O=C(NC[C@@H](O)C[C@@H](Cc1ccccc1)C(=O)N[C@H]1c2ccccc2C[C@H]1O)c1ccc([N+](=O)[O-])cc1`, the inhibition is 14% in assay [3]; 21.1% in assay [4]; 22.3% in assay [5]; 16.4% in assay [6]; 18.6% in assay [7]; -0.5 to 18.8% in assay [1].
Consider `O=C(NC1CCCc2ccccc21)[C@H](Cc1ccccc1)C[C@H](O)CNS(=O)(=O)c1ccc([N+](=O)[O-])cc1` (some centres not stated), for which the inhibition is 8.8% in assay [3]; 17.5% in assay [4]; 12.4% in assay [5]; 10.2% in assay [6]; 7.4% in assay [7]; 3.3 to 13.8% in assay [1].
With `O=C(N[C@H]1c2ccccc2C[C@H]1O)[C@H](Cc1ccccc1)C[C@H](O)CNS(=O)(=O)c1ccccc1C(F)(F)F`, the inhibition is 23% in assay [3]; 24.7% in assay [4]; 18.8% in assay [5]; 21% in assay [6]; 24.8% in assay [7]; 10.7 to 22.9% in assay [1].
On to `O=C(CCN1C(=O)C=CC1=O)NC[C@@H](O)C[C@@H](Cc1ccccc1)C(=O)N[C@H]1c2ccccc2C[C@H]1O`, for which the inhibition in assay [3] is 15.5%; in assay [4], 18.6%; in assay [5], 19%; in assay [6] it was -3.1%; in assay [7] it was 15.2%; in assay [1], 7.75 to 9.9%.
Regarding `C=Cc1ccc(C(=O)NC[C@@H](O)C[C@@H](Cc2ccccc2)C(=O)N[C@H]2c3ccccc3C[C@H]2O)cc1`, the inhibition is 16.1% in assay [3]; 23.8% in assay [4]; 16.5% in assay [5]; 1.8% in assay [6]; 47.5% in assay [7]; 2.3 to 12.8% in assay [1].
Regarding `Cc1ccc(S(=O)(=O)NC[C@@H](O)C[C@@H](Cc2ccccc2)C(=O)N[C@H]2c3ccccc3C[C@H]2O)cc1`, the inhibition is 42.2% in assay [3]; 98.2% in assay [4]; 63.5% in assay [5]; 90% in assay [6]; 80.4% in assay [7]; 62.3 to 94.1% in assay [1]. In assay [2], the IC50 lay in the range of 1.18 to 1.98 µM.
`COc1ccc(S(=O)(=O)NC[C@@H](O)C[C@@H](Cc2ccccc2)C(=O)N[C@H]2c3ccccc3C[C@H]2O)cc1`: the inhibition in assay [3] was 33.9%; in assay [4], 93.8%; in assay [5], 45.9%; in assay [6] it was 89.4%; in assay [7] it was 76.7%; in assay [1], 54.1 to 91.6%.
With `O=C(N[C@H]1c2ccccc2C[C@H]1O)[C@H](Cc1ccccc1)C[C@H](O)CNS(=O)(=O)c1cccc([N+](=O)[O-])c1`, the inhibition in assay [3] is 18.4%; in assay [4] it was 21.3%; in assay [5] it was 15.2%; in assay [6] it was 33.4%; in assay [7], 35.1%; in assay [1], 24.2 to 27.4%.
Turning to `Cc1cc(S(=O)(=O)NC[C@@H](O)C[C@@H](Cc2ccccc2)C(=O)N[C@H]2c3ccccc3C[C@H]2O)c(C)cc1Cl`, the inhibition in assay [3] was 20.6%; in assay [4], 41.1%; in assay [5], 21.6%; in assay [6] it was 0.6%; in assay [7] it was 30.2%; in assay [1] it was 17.6 to 20.9%.
Regarding `CCCCCNc1ccc(S(=O)(=O)NC[C@@H](O)C[C@@H](Cc2ccccc2)C(=O)N[C@H]2c3ccccc3C[C@H]2O)cc1`, the inhibition in assay [3] is 10.8%; in assay [4], 19.1%; in assay [5] it was 19.1%; in assay [6], 11.3%; in assay [7] it was 2.3%; in assay [1] it was 2.8 to 15.2%.
Take `CCCCNC(=O)c1ccc(S(=O)(=O)NC[C@@H](O)C[C@@H](Cc2ccccc2)C(=O)N[C@H]2c3ccccc3C[C@H]2O)cc1`: the inhibition is -0.4% in assay [3]; 20.6% in assay [4]; 5.9% in assay [5]; -5.5% in assay [6]; 2.9% in assay [7]; -0.4 to 7.55% in assay [1].
Regarding `CCCNc1ccc(S(=O)(=O)NC[C@@H](O)C[C@@H](Cc2ccccc2)C(=O)N[C@H]2c3ccccc3C[C@H]2O)cc1`, the inhibition was -2.9% in assay [3]; 24.5% in assay [4]; 11.3% in assay [5]; 6.7% in assay [6]; 2.6% in assay [7]; 4.1 to 15.6% in assay [1].
With `O=C(N[C@H]1c2ccccc2C[C@H]1O)[C@H](Cc1ccccc1)C[C@H](O)CNS(=O)(=O)c1ccc(C(=O)N2CCOCC2)cc1`, the inhibition in assay [3] is -1.4%; in assay [4] it was 25.5%; in assay [5] it was 0.1%; in assay [6] it was -5.4%; in assay [7], 1.8%; in assay [1], 4.1 to 10.1%.
Turning to `CNC(=O)[C@H](Cc1ccccc1)C[C@H](O)CNS(=O)(=O)c1ccc([N+](=O)[O-])cc1`, the inhibition in assay [3] is 7%; in assay [4], 9.3%; in assay [5], 8.3%; in assay [6] it was 3.2%; in assay [7], 4%; in assay [1], 6.25 to 6.9%.
